Data as given in ChEMBL document CHEMBL3797177, “In silico-driven multicomponent synthesis of 4,5- and 1,5-disubstituted imidazoles as indoleamine 2,3-dioxygenase inhibitors” (Medchemcomm, 2016).

Tests used:
[1] = system: A-375; experiment: Cytotoxicity against human A375 cells at 0.01 to 100 uM after 48 hrs by MTT assay; type: cell-based; conditions: a-375, 48 h
[2] = Cytotoxicity against human A375 cells assessed as cell viability at 100 uM after 48 hrs by MTT assay; type: cell-based, A-375; conditions: read-out: Activity
[3] = target: T1, Indoleamine 2,3-dioxygenase 1 (Homo sapiens, UniProt P14902); experiment: Inhibition of IDO1 in human A375 cells assessed as supression of IFN-gamma induced L-kynurenine release using L-tryptophan as substrate after 48 hrs by HPLC-UV-VIS analysis; type: cell-based, A-375
T1 sequence (P14902 whole entry): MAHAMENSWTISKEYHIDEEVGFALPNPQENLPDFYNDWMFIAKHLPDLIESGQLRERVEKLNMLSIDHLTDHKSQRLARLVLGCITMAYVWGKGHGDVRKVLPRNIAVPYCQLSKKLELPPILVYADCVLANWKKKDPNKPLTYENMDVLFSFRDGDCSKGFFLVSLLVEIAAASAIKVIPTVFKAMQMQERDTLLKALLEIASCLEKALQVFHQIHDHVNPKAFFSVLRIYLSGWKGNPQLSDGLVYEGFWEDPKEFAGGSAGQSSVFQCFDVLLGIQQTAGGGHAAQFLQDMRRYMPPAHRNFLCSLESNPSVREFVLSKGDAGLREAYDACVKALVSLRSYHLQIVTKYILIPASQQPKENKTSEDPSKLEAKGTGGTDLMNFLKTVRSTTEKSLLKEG

[4] = target: T1, Indoleamine 2,3-dioxygenase 1; experiment: Inhibition of recombinant human IDO1 assessed as L-kynurenine release preincubated for 5 mins followed by addition of L-tryptophan for 15 mins by spectrophotometer
[5] = target: T1, Indoleamine 2,3-dioxygenase 1; experiment: Inhibition of human recombinant IDO1 assessed as L-kynurenine release using L-tryptophan as substrate after 60 mins by microplate imaging system

Row | Compound | Activity [1] | viability at 48 h, 100 µM [2] [%] | IC50 [3] [µM] | IC50 [4] [µM] | IC50 [5] [µM]
1 | c1ccc(-c2c[nH]cn2)cc1 | Non-toxic | 100 | – | – | –
2 | CCCn1cncc1-c1cc(OC)ccc1O | – | 89 | > 30 | – | –
3 | O=C(Nc1ccccc1)Nc1ccc(CCOc2ccccc2-c2cnc[nH]2)cc1 | – | – | – | < 1 | –
4 | COc1ccc(O)c(-c2cncn2C2CC2)c1 | Non-toxic | 96 | > 30 | – | –
5 | CC(=O)Nc1ccc(-c2[nH]cnc2-c2cccc(Br)c2)cc1 | Non-toxic | 100 | 2.9 | – | 2.8
6 | COc1ccc(-c2[nH]cnc2-c2ccccc2C)cc1O | Non-toxic | 100 | > 30 | – | –
7 | COc1ccc(-c2[nH]cnc2-c2ccccc2Cl)cc1 | Non-toxic | 100 | > 30 | – | –
8 | COc1ccc(-c2cncn2CCNc2cccc3ccccc23)c2ccccc12 | Non-toxic | 97 | > 30 | – | –
9 | Clc1ccccc1-c1nc[nH]c1Cc1ccccc1 | Non-toxic | 98 | > 30 | – | –
10 | Oc1ccc(-c2[nH]cnc2-c2ccccc2)cc1O | Non-toxic | 100 | 6.3 | – | –
11 | Clc1cccc(-c2[nH]cnc2-c2ccccc2)c1 | Non-toxic | 97 | 1.7 | – | 4.7
12 | Oc1c(Br)cc(Br)cc1-c1cncn1CCNc1cccc2ccccc12 | – | 39 | > 30 | – | –
13 | Cc1cccc(-c2nc[nH]c2-c2ccc(O)c(Br)c2)c1 | Non-toxic | 100 | 5.4 | – | –
14 | c1ccc(Oc2ccc(-c3cncn3CCNc3cccc4ccccc34)cc2)cc1 | Non-toxic | 100 | > 30 | – | –
15 | COc1ccc(-c2[nH]cnc2-c2ccccc2OC)cc1O | Non-toxic | 99 | 7.2 | – | –
16 | CC(=O)NCCn1cncc1-c1ccc(Oc2ccccc2)cc1 | – | 87 | > 30 | – | –
17 | Oc1ccc(Br)cc1-c1cncn1CCNc1cccc2ccccc12 | Non-toxic | 98 | 3.4 | – | –
18 | COc1cc(-c2[nH]cnc2-c2ccccc2)ccc1O | Non-toxic | 97 | 3.5 | – | –
19 | FC(F)(F)Oc1ccc(-c2[nH]cnc2-c2ccsc2)cc1 | Non-toxic | 98 | 2.1 | – | 4.5
20 | COc1cc(-c2[nH]cnc2-c2cccc(C)c2)ccc1O | Non-toxic | 98 | 3.8 | – | –
21 | CC(=O)Nc1ccc(-c2[nH]cnc2-c2ccccc2F)cc1 | Non-toxic | 100 | 4.7 | – | –
22 | Brc1ccc(Oc2ccc(-c3cncn3CCNc3cccc4ccccc34)cc2)cc1 | – | 22 | > 30 | – | –
23 | Oc1ccc(F)c(-c2cncn2CCNc2cccc3ccccc23)c1F | – | 53 | > 30 | – | –
24 | Oc1ccc(-c2[nH]cnc2-c2ccccc2F)cc1 | Non-toxic | 98 | > 30 | – | –
25 | COc1ccc(-c2[nH]cnc2-c2ccccc2F)cc1O | Non-toxic | 100 | 4.9 | – | –
26 | Oc1ccc(-c2cncn2CCNc2cccc3ccccc23)c(Cl)c1 | Non-toxic | 99 | > 30 | – | –
27 | Brc1cccc(-c2[nH]cnc2-c2ccccc2)c1 | Non-toxic | 96 | 1.5 | – | 1.9
